Measured values as given in the NIST ThermoML archive (doi:10.1021/je060411g).

Assay: molar heat capacity at constant pressure
Conditions: 101.33 kPa

CC(C)(C)CO [2,2-dimethyl-1-propanol]
Conditions	molar heat capacity at constant pressure [J/K/mol]
6.04 K, Crystal 2, Vacuum adiabatic calorimetry	1.42
6.22 K, Crystal 2, Vacuum adiabatic calorimetry	1.34
6.72 K, Crystal 2, Vacuum adiabatic calorimetry	1.62
6.93 K, Crystal 2, Vacuum adiabatic calorimetry	1.79
7.63 K, Crystal 2, Vacuum adiabatic calorimetry	2.48
7.66 K, Crystal 2, Vacuum adiabatic calorimetry	2.49
8.46 K, Crystal 2, Vacuum adiabatic calorimetry	3.25
8.71 K, Crystal 2, Vacuum adiabatic calorimetry	3.26
9.38 K, Crystal 2, Vacuum adiabatic calorimetry	3.5
9.84 K, Crystal 2, Vacuum adiabatic calorimetry	3.94
10 K, Crystal 2	4.09
10.52 K, Crystal 2, Vacuum adiabatic calorimetry	4.52
11.19 K, Crystal 2, Vacuum adiabatic calorimetry	4.61
11.74 K, Crystal 2, Vacuum adiabatic calorimetry	4.61
12.6 K, Crystal 2, Vacuum adiabatic calorimetry	5.48
12.96 K, Crystal 2, Vacuum adiabatic calorimetry	6.1
13.95 K, Crystal 2, Vacuum adiabatic calorimetry	7.71
14.12 K, Crystal 2, Vacuum adiabatic calorimetry	7.8
15 K, Crystal 2	9
15.22 K, Crystal 2, Vacuum adiabatic calorimetry	9.22
15.26 K, Crystal 2, Vacuum adiabatic calorimetry	9.22
16.54 K, Crystal 2, Vacuum adiabatic calorimetry	10.78
16.63 K, Crystal 2, Vacuum adiabatic calorimetry	10.92
17.89 K, Crystal 2, Vacuum adiabatic calorimetry	12.37
18.17 K, Crystal 2, Vacuum adiabatic calorimetry	12.68
19.28 K, Crystal 2, Vacuum adiabatic calorimetry	14.02
19.75 K, Crystal 2, Vacuum adiabatic calorimetry	14.6
20 K, Crystal 2	14.89
20.7 K, Crystal 2, Vacuum adiabatic calorimetry	15.68
21.36 K, Crystal 2, Vacuum adiabatic calorimetry	16.44
22.16 K, Crystal 2, Vacuum adiabatic calorimetry	17.26
23.02 K, Crystal 2, Vacuum adiabatic calorimetry	18.27
23.65 K, Crystal 2, Vacuum adiabatic calorimetry	18.89
24.72 K, Crystal 2, Vacuum adiabatic calorimetry	20.07
25 K, Crystal 2	20.35
25.17 K, Crystal 2, Vacuum adiabatic calorimetry	20.52
26.45 K, Crystal 2, Vacuum adiabatic calorimetry	21.86
26.71 K, Crystal 2, Vacuum adiabatic calorimetry	22.12
27.26 K, Crystal 2, Vacuum adiabatic calorimetry	22.45
27.45 K, Crystal 2, Vacuum adiabatic calorimetry	22.66
28.26 K, Crystal 2, Vacuum adiabatic calorimetry	23.73
28.44 K, Crystal 2, Vacuum adiabatic calorimetry	23.84
29.84 K, Crystal 2, Vacuum adiabatic calorimetry	25.29
30 K, Crystal 2	25.41
30.14 K, Crystal 2, Vacuum adiabatic calorimetry	25.52
31.75 K, Crystal 2, Vacuum adiabatic calorimetry	26.93
33.36 K, Crystal 2, Vacuum adiabatic calorimetry	28.48
35 K, Crystal 2	29.8
35.01 K, Crystal 2, Vacuum adiabatic calorimetry	29.81
36.67 K, Crystal 2, Vacuum adiabatic calorimetry	31.13
38.35 K, Crystal 2, Vacuum adiabatic calorimetry	32.76
40 K, Crystal 2	33.67
40.05 K, Crystal 2, Vacuum adiabatic calorimetry	33.71
41.77 K, Crystal 2, Vacuum adiabatic calorimetry	34.97
43.5 K, Crystal 2, Vacuum adiabatic calorimetry	36.21
45 K, Crystal 2	37.23
45.25 K, Crystal 2, Vacuum adiabatic calorimetry	37.39
47.01 K, Crystal 2, Vacuum adiabatic calorimetry	38.58
48.78 K, Crystal 2, Vacuum adiabatic calorimetry	39.8
50 K, Crystal 2	40.59
50.56 K, Crystal 2, Vacuum adiabatic calorimetry	40.96
52.36 K, Crystal 2, Vacuum adiabatic calorimetry	42.15
54.16 K, Crystal 2, Vacuum adiabatic calorimetry	43.42
55 K, Crystal 2	43.96
55.98 K, Crystal 2, Vacuum adiabatic calorimetry	44.6
57.81 K, Crystal 2, Vacuum adiabatic calorimetry	45.76
59.64 K, Crystal 2, Vacuum adiabatic calorimetry	46.96
60 K, Crystal 2	47.18
61.49 K, Crystal 2, Vacuum adiabatic calorimetry	48
63.34 K, Crystal 2, Vacuum adiabatic calorimetry	48.9
65 K, Crystal 2	49.1
65.21 K, Crystal 2, Vacuum adiabatic calorimetry	49.05
67.11 K, Crystal 2, Vacuum adiabatic calorimetry	48.13
69.02 K, Crystal 2, Vacuum adiabatic calorimetry	47.57
70 K, Crystal 2	49.5
70.93 K, Crystal 2, Vacuum adiabatic calorimetry	51.84
72.82 K, Crystal 2, Vacuum adiabatic calorimetry	53.62
74.71 K, Crystal 2, Vacuum adiabatic calorimetry	54.48
75 K, Crystal 2	54.63
76.62 K, Crystal 2, Vacuum adiabatic calorimetry	55.54
78.53 K, Crystal 2, Vacuum adiabatic calorimetry	57.23
80 K, Crystal 2	58.6
80.43 K, Crystal 2, Vacuum adiabatic calorimetry	58.98
82.34 K, Crystal 2, Vacuum adiabatic calorimetry	59.82
84.25 K, Crystal 2, Vacuum adiabatic calorimetry	60.91
85 K, Crystal 2	61.31
86.17 K, Crystal 2, Vacuum adiabatic calorimetry	61.94
88.09 K, Crystal 2, Vacuum adiabatic calorimetry	63.01
90 K, Crystal 2	64.25
90.01 K, Crystal 2, Vacuum adiabatic calorimetry	64.26
91.94 K, Crystal 2, Vacuum adiabatic calorimetry	65.3
93.72 K, Crystal 2, Vacuum adiabatic calorimetry	66.04
93.87 K, Crystal 2, Vacuum adiabatic calorimetry	66.34
93.99 K, Crystal 2, Vacuum adiabatic calorimetry	65.67
95 K, Crystal 2	66.91
95.11 K, Crystal 2, Vacuum adiabatic calorimetry	67.03
95.8 K, Crystal 2, Vacuum adiabatic calorimetry	67.7
97.08 K, Crystal 2, Vacuum adiabatic calorimetry	68.3
97.74 K, Crystal 2, Vacuum adiabatic calorimetry	68.54
99.03 K, Crystal 2, Vacuum adiabatic calorimetry	69.37
99.68 K, Crystal 2, Vacuum adiabatic calorimetry	69.74
100 K, Crystal 2	69.96
100.97 K, Crystal 2, Vacuum adiabatic calorimetry	70.67
102.92 K, Crystal 2, Vacuum adiabatic calorimetry	71.57
104.87 K, Crystal 2, Vacuum adiabatic calorimetry	72.73
105 K, Crystal 2	72.8
106.82 K, Crystal 2, Vacuum adiabatic calorimetry	73.77
108.77 K, Crystal 2, Vacuum adiabatic calorimetry	74.92
110 K, Crystal 2	75.58
110.72 K, Crystal 2, Vacuum adiabatic calorimetry	75.98
112.68 K, Crystal 2, Vacuum adiabatic calorimetry	77.06
114.63 K, Crystal 2, Vacuum adiabatic calorimetry	78.14
116.59 K, Crystal 2, Vacuum adiabatic calorimetry	79.23
118.55 K, Crystal 2, Vacuum adiabatic calorimetry	80.35
120 K, Crystal 2	81.21
120.51 K, Crystal 2, Vacuum adiabatic calorimetry	81.5
122.47 K, Crystal 2, Vacuum adiabatic calorimetry	82.44
124.43 K, Crystal 2, Vacuum adiabatic calorimetry	83.56
126.39 K, Crystal 2, Vacuum adiabatic calorimetry	84.65
128.36 K, Crystal 2, Vacuum adiabatic calorimetry	85.69
130 K, Crystal 2	86.6
130.32 K, Crystal 2, Vacuum adiabatic calorimetry	86.79
131.73 K, Crystal 2, Vacuum adiabatic calorimetry	87.42
132.15 K, Crystal 2, Vacuum adiabatic calorimetry	87.41
132.29 K, Crystal 2, Vacuum adiabatic calorimetry	87.89
133.36 K, Crystal 2, Vacuum adiabatic calorimetry	88.24
134.27 K, Crystal 2, Vacuum adiabatic calorimetry	88.87
135.34 K, Crystal 2, Vacuum adiabatic calorimetry	89.35
136.24 K, Crystal 2, Vacuum adiabatic calorimetry	89.94
137.31 K, Crystal 2, Vacuum adiabatic calorimetry	90.43
139.28 K, Crystal 2, Vacuum adiabatic calorimetry	91.45
140 K, Crystal 2	91.85
141.25 K, Crystal 2, Vacuum adiabatic calorimetry	92.54
143.22 K, Crystal 2, Vacuum adiabatic calorimetry	93.56
145.19 K, Crystal 2, Vacuum adiabatic calorimetry	94.64
147.17 K, Crystal 2, Vacuum adiabatic calorimetry	95.67
149.14 K, Crystal 2, Vacuum adiabatic calorimetry	96.7
150 K, Crystal 2	97.11
151.11 K, Crystal 2, Vacuum adiabatic calorimetry	97.64
153.09 K, Crystal 2, Vacuum adiabatic calorimetry	98.81
155.06 K, Crystal 2, Vacuum adiabatic calorimetry	99.89
157.04 K, Crystal 2, Vacuum adiabatic calorimetry	100.86
159.01 K, Crystal 2, Vacuum adiabatic calorimetry	101.85
160 K, Crystal 2	102.4
160.99 K, Crystal 2, Vacuum adiabatic calorimetry	102.94
162.97 K, Crystal 2, Vacuum adiabatic calorimetry	104.04
164.94 K, Crystal 2, Vacuum adiabatic calorimetry	104.98
166.92 K, Crystal 2, Vacuum adiabatic calorimetry	106.04
168.9 K, Crystal 2, Vacuum adiabatic calorimetry	107.14
170 K, Crystal 2	107.8
170.88 K, Crystal 2, Vacuum adiabatic calorimetry	108.23
172.86 K, Crystal 2, Vacuum adiabatic calorimetry	109.18
174.83 K, Crystal 2, Vacuum adiabatic calorimetry	110.28
176.81 K, Crystal 2, Vacuum adiabatic calorimetry	111.23
178.79 K, Crystal 2, Vacuum adiabatic calorimetry	112.41
180 K, Crystal 2	113.1
180.77 K, Crystal 2, Vacuum adiabatic calorimetry	113.61
182.75 K, Crystal 2, Vacuum adiabatic calorimetry	115.04
184.73 K, Crystal 2, Vacuum adiabatic calorimetry	115.99
186.72 K, Crystal 2, Vacuum adiabatic calorimetry	117.16
188.7 K, Crystal 2, Vacuum adiabatic calorimetry	118.27
190 K, Crystal 2	119.2
190.69 K, Crystal 2, Vacuum adiabatic calorimetry	119.62
192.68 K, Crystal 2, Vacuum adiabatic calorimetry	120.83
194.67 K, Crystal 2, Vacuum adiabatic calorimetry	122.08
196.66 K, Crystal 2, Vacuum adiabatic calorimetry	123.36
198.66 K, Crystal 2, Vacuum adiabatic calorimetry	124.74
200 K, Crystal 2	125.7
200.66 K, Crystal 2, Vacuum adiabatic calorimetry	126.14
202.67 K, Crystal 2, Vacuum adiabatic calorimetry	127.38
204.67 K, Crystal 2, Vacuum adiabatic calorimetry	128.75
206.68 K, Crystal 2, Vacuum adiabatic calorimetry	130.08
208.7 K, Crystal 2, Vacuum adiabatic calorimetry	131.55
210 K, Crystal 2	132.5
210.71 K, Crystal 2, Vacuum adiabatic calorimetry	132.96
212.71 K, Crystal 2, Vacuum adiabatic calorimetry	134.53
214.72 K, Crystal 2, Vacuum adiabatic calorimetry	136.27
216.71 K, Crystal 2, Vacuum adiabatic calorimetry	138.22
220 K, Crystal 2	145
237.42 K, Crystal 1	158.16
239.45 K, Crystal 1	159.61
240 K, Crystal 1	160.1
241.42 K, Crystal 1	161.17
243.4 K, Crystal 1	162.58
245.38 K, Crystal 1	163.87
247.36 K, Crystal 1	165.12
249.33 K, Crystal 1	166.8
250 K, Crystal 1	167.3
251.31 K, Crystal 1	168.24
253.28 K, Crystal 1	169.62
255.26 K, Crystal 1	171.23
257.24 K, Crystal 1	172.85
259.21 K, Crystal 1	174.64
260 K, Crystal 1	175.3
261.18 K, Crystal 1	176.19
263.15 K, Crystal 1	177.74
265.1 K, Crystal 1	179.42
267.05 K, Crystal 1	181.32
268.99 K, Crystal 1	183.18
270 K, Crystal 1	184
270.93 K, Crystal 1	184.74
272.86 K, Crystal 1	186.95
274.77 K, Crystal 1	188.7
276.68 K, Crystal 1	190.91
278.57 K, Crystal 1	192.85
280 K, Crystal 1	194.5
280.46 K, Crystal 1	195.04
282.33 K, Crystal 1	197.11
284.2 K, Crystal 1	199.17
286.05 K, Crystal 1	201.41
287.9 K, Crystal 1	203.48
289.73 K, Crystal 1	205.72
290 K, Crystal 1	206
291.56 K, Crystal 1	207.85
293.37 K, Crystal 1	211.16
295.17 K, Crystal 1	213.27
298.15 K, Crystal 1	214.3
300 K, Crystal 1	216.4
310 K, Crystal 1	227.8
328.08 K, Liquid	267.44
329.23 K, Liquid	268.95
330 K, Liquid	256.6
330.33 K, Liquid	267.74
330.38 K, Liquid	270.44
331.53 K, Liquid	271.12
331.59 K, Liquid	268.59
332.68 K, Liquid	271.99
332.84 K, Liquid	269.67
333.82 K, Liquid	273.19
334.1 K, Liquid	271.2
334.97 K, Liquid	273.8
335.35 K, Liquid	272.07
336.11 K, Liquid	274.9
336.6 K, Liquid	273.27
337.25 K, Liquid	276.23
337.86 K, Liquid	274.28
338.39 K, Liquid	277.22
339.12 K, Liquid	275.37
339.52 K, Liquid	278.09
340 K, Liquid	277.1
340.38 K, Liquid	276.53
340.66 K, Liquid	278.87
341.64 K, Liquid	277.24
341.79 K, Liquid	279.67
342.91 K, Liquid	278.19
342.92 K, Liquid	280.81
344.05 K, Liquid	281.29
344.18 K, Liquid	279.29
345.18 K, Liquid	282
345.46 K, Liquid	280.32
346.75 K, Liquid	281.22
348.04 K, Liquid	282.21
349.35 K, Liquid	283.25
350 K, Liquid	283.8
350.67 K, Liquid	284.33
352.01 K, Liquid	285.41
353.37 K, Liquid	286.57
354.74 K, Liquid	285.99
356.13 K, Liquid	288.33
357.55 K, Liquid	289.27
358.99 K, Liquid	289.94
360 K, Liquid	290.2
360.45 K, Liquid	290.3
361.93 K, Liquid	290.05
363.41 K, Liquid	288.87
364.86 K, Liquid	286.3
366.24 K, Liquid	283
367.51 K, Liquid	296.63
368.71 K, Liquid	295.14
369.9 K, Liquid	295.38
370 K, Liquid	295.4
371.09 K, Liquid	296.21
372.27 K, Liquid	296.96
373.45 K, Liquid	297.66
374.63 K, Liquid	298.2
375.81 K, Liquid	298.87
376.99 K, Liquid	299.38
378.17 K, Liquid	299.76
379.34 K, Liquid	300.28
380.52 K, Liquid	300.53
